33 compounds from ChEMBL document CHEMBL3988442, “University of Dundee, Small-Polar-MMV Screening Library” (2021) can be followed below.

Some results are limits rather than exact numbers.

Assay [1] is described as follows: microbe, parasite or virus in culture. Conditions: Mycobacterium tuberculosis, 72 h, read-out: pIC50 (converted).
Assay [2] is described as follows: microbe, parasite or virus in culture. Conditions: Mycobacterium tuberculosis, 96 h, read-out: pIC50 (converted).

As to `CN(Cc1cnccn1)S(=O)(=O)c1ccc(C(F)(F)F)nc1`, the IC50 in assay [1] and in assay [2] was more than 50.1 µM throughout.
Regarding `Cc1ccc(C(=O)Nc2cnn(C)c2)cn1`, the IC50 in assay [1] and in assay [2] was more than 501 µM in each case.
In the case of `CN(C)S(=O)(=O)NCC(O)c1ccc(Cl)c(F)c1` (stereo unspecified), the IC50 in assay [1] is 131 µM; in assay [2] it was more than 501 µM.
On to `CC(NC(=O)CCNC(=O)c1ccco1)c1cccs1` (stereo unspecified), for which the IC50 in assay [1] and in assay [2] was more than 501 µM each time.
On to `CC(C)CCC(C)NC(=O)Nc1ccccn1` (stereo unspecified), for which the IC50 was 13.6 µM in assay [1] and 5.47 µM in assay [2].
Take `Cc1nc(O)cc(CCNC(=O)C2CC(=O)N(CC(C)C)C2)n1` (stereo unspecified): the IC50 in assay [1] and in assay [2] was more than 50.1 µM in each case.
For the compound `Cc1cnn(CCNCc2cccc3c2OCO3)c1`, the IC50 was 258 µM in assay [1] and more than 501 µM in assay [2].
Taken in the same sequence, the figures for `CCN(CC)CCn1cnc(-c2ccccc2)c1-c1ncc[nH]1` were more than 50.1 µM and 27.2 µM.
Taken in the same sequence, the figures for `COC(=O)NCCc1ccccc1OC` were 98.5 µM and more than 501 µM.
`COc1cccc(CCN)n1`: the IC50 in assay [1] is 194 µM; in assay [2] it was 192 µM.
For `Cc1nn(C)c2ncnc(N(C)CC3CCN(CC(C)C)C3)c12` (stereo unspecified), the IC50 in assay [1] and in assay [2] was more than 50.1 µM each time.
With `Cc1nnc(SCCC(=O)N(C)Cc2ccc(F)cc2F)[nH]1`, the IC50 in assay [1] and in assay [2] was more than 50.1 µM throughout.
Consider `CCC(CC)C(CN)N(C)C` (stereo unspecified), for which the results for the IC50 in assay [1] and in assay [2] were 78.1 µM and 204 µM, respectively.
Take `COc1ccc(CCN)c(OC)c1OC`: the results for the IC50 in assay [1] and in assay [2] were 36.1 µM and 55.6 µM, respectively.
Taken in the same sequence, the figures for `CN(C)CCNC(=O)c1ccn(-c2ccc3ccccn23)n1` were more than 50.1 µM and more than 50.1 µM.
For `CC(=O)Nc1ccc(C(=O)N(C)Cc2cccs2)cc1`, in that order: 307 µM and 272 µM.
Taken in the same sequence, the figures for `CC(C)c1ccc(O)c(C(=O)NC2CCN(c3ncccn3)CC2)c1` were 20.4 µM and 24.7 µM.
As for `CC(=O)NCC(Cc1cccc(F)c1)n1cccc1` (stereo unspecified), the results for the IC50 in assay [1] and in assay [2] were more than 50.1 µM and 42.5 µM, respectively.
`Cc1ccccc1CN1CCCN(S(=O)(=O)N(C)C2CCCCC2)CC1`: the IC50 in assay [1] and in assay [2] was more than 50.1 µM in each case.
Turning to `CCS(=O)(=O)NCCOc1ccc2c(c1)OCO2`, the IC50 in assay [1] is 230 µM; in assay [2], 204 µM.
For `CN1CCOC[C@H]1c1nc(-c2cccnc2)c[nH]1`, the IC50 in assay [1] and in assay [2] was more than 50.1 µM in each case.
As to `CN(CCc1ccccn1)Cc1nccn1Cc1ccccc1`, the results for the IC50 in assay [1] and in assay [2] were 43.5 µM and more than 50.1 µM, respectively.
Consider `N#CCCn1ncc2c(NCc3cccs3)ncnc21`, for which the results for the IC50 in assay [1] and in assay [2] were 399 µM and more than 501 µM, respectively.
For `Cc1cc(C(=O)NCc2csc(N(C)C)n2)c2ccc(C)c(C)c2n1`, in that order: 19 µM and 13.6 µM.
For `CC(=O)N1CCc2onc(-c3ccc(F)c(F)c3)c2C1`, in that order: 393 µM and 262 µM.
Take `O=C(NCCO)c1cc2c(F)cc(Br)cc2[nH]1`: the IC50 in assay [1] was 257 µM; in assay [2] it was more than 501 µM.
For `CC(Nc1ccc(C#N)cn1)c1ccc2c(c1)OCO2` (stereo unspecified), in that order: 215 µM and 234 µM.
Regarding `CC(C)CS(=O)(=O)NCc1ccc2c(c1)OCO2`, the IC50 is 183 µM in assay [1] and more than 501 µM in assay [2].
On to `Cc1nc(COc2ccc(C(=O)OCC#N)cc2)no1`, for which the IC50 in assay [1] and in assay [2] was more than 501 µM in each case.
On to `CN(CC1CCOCC1)C(=O)NCc1ccco1`, for which the IC50 was 95.8 µM in assay [1] and 125 µM in assay [2].
Regarding `O=S1(=O)CCCN1CCNc1ncc(Cl)cc1Cl`, the IC50 in assay [1] was 111 µM; in assay [2], more than 501 µM.
Taken in the same sequence, the figures for `CC(C)CCOCCSc1nnnn1C` were 155 µM and 82.3 µM.
For `NCc1noc(-c2cccc(Br)c2)n1`, in that order: 127 µM and more than 501 µM.
